Source: US9492471B2, “Methods of treating a disease or disorder associated with Bruton'S Tyrosine Kinase” (Celgene Avilomics Research, Inc., priority 2013, dated 2016)
Where two headings read alike, the source gives them in different places.

Tests used:
Experiment in all cases: HotSpot kinase profiling
Type in all cases: biochemical
BMPR2 = target: T1, BMPR2 (Homo sapiens, UniProt Q13873)
T1 construct: purchased Reaction Biology Corp
T1 sequence (Q13873 27-1038): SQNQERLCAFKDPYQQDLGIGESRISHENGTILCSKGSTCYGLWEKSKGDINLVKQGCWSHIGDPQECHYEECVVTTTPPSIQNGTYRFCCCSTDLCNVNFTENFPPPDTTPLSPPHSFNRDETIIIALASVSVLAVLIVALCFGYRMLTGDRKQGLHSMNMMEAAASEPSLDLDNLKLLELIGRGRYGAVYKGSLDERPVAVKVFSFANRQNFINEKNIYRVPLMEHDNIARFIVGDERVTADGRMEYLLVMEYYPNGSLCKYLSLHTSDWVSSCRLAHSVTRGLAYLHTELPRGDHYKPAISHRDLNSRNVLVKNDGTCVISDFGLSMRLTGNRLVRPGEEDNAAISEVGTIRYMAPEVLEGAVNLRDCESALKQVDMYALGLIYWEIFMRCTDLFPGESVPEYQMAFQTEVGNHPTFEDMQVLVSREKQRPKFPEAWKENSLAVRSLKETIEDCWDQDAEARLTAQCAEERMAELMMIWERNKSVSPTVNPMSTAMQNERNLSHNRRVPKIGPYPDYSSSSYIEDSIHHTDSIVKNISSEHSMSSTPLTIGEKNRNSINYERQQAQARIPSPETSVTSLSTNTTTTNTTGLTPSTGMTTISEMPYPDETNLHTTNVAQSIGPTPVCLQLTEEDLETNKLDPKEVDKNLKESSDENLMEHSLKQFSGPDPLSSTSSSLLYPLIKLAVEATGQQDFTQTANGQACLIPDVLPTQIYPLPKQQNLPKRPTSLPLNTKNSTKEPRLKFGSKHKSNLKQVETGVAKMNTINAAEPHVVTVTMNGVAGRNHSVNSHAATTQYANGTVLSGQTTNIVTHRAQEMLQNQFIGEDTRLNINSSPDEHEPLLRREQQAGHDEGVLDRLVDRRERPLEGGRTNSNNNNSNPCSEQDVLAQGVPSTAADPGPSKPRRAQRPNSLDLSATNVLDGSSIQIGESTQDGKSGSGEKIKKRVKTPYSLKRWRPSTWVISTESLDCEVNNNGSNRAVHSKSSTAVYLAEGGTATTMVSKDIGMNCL
Summary of the method: (§1)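 Percent inhibition, averaged when run more than once and referenced to a DMSO negative control, came from a radioactive filter-binding readout on P81 paper. Reactions of kinase with freshly made substrate and cofactors ran for 2 h at room temperature.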

CK1g3 = target: T2, CK1g3 (Homo sapiens, UniProt Q9Y6M4)
T2 construct: purchased Reaction Biology Corp
T2 sequence (Q9Y6M4 whole entry): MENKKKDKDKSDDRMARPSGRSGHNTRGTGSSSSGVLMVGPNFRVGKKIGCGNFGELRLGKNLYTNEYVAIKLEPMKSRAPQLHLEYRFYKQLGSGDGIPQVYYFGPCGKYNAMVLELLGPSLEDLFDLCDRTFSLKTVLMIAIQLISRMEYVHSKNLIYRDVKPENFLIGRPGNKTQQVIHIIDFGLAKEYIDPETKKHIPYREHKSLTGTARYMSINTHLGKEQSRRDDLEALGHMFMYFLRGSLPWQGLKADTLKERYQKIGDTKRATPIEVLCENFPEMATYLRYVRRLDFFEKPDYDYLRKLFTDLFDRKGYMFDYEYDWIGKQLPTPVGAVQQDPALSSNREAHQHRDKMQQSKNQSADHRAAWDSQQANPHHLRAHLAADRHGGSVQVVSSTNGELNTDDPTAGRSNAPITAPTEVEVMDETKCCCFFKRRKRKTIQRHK
Summary of the method: as §1

GSK3a = target: T3, GSK3a (Homo sapiens, UniProt P49840)
T3 construct: purchased Reaction Biology Corp
T3 sequence (P49840 whole entry): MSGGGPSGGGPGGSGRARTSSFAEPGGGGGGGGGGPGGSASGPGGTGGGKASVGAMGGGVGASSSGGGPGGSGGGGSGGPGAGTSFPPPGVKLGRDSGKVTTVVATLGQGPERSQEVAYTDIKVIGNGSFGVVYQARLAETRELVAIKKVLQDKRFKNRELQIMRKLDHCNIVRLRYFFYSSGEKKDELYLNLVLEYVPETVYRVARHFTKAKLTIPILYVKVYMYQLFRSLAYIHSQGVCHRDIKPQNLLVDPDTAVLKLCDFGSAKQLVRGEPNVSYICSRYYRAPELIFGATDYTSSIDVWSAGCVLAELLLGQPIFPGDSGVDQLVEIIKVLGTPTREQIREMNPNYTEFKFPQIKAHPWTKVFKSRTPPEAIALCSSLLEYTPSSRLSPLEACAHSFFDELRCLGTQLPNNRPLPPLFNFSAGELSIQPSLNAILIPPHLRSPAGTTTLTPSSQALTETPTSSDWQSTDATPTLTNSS
Summary of the method: as §1

PKAcb = target: T4, PKAcb (Homo sapiens, UniProt P22694)
T4 construct: purchased Reaction Biology Corp
Summary of the method: as §1

PKAcg = target: T5, PKAcg (Homo sapiens, UniProt P22612)
T5 construct: purchased Reaction Biology Corp
T5 sequence (P22612 whole entry): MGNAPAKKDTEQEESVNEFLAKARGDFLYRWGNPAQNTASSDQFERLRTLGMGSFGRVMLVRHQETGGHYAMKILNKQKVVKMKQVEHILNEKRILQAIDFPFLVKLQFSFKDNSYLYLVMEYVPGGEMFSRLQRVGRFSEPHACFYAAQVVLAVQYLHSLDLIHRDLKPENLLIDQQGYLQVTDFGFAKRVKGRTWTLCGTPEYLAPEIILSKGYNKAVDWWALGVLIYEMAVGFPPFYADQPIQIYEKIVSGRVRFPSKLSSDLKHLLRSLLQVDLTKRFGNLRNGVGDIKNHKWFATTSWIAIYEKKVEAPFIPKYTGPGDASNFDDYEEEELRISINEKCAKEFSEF
Summary of the method: as §1

SRPK2 = target: T6, SRPK2 (Homo sapiens, UniProt P78362)
T6 construct: purchased Reaction Biology Corp
T6 sequence (P78362 whole entry): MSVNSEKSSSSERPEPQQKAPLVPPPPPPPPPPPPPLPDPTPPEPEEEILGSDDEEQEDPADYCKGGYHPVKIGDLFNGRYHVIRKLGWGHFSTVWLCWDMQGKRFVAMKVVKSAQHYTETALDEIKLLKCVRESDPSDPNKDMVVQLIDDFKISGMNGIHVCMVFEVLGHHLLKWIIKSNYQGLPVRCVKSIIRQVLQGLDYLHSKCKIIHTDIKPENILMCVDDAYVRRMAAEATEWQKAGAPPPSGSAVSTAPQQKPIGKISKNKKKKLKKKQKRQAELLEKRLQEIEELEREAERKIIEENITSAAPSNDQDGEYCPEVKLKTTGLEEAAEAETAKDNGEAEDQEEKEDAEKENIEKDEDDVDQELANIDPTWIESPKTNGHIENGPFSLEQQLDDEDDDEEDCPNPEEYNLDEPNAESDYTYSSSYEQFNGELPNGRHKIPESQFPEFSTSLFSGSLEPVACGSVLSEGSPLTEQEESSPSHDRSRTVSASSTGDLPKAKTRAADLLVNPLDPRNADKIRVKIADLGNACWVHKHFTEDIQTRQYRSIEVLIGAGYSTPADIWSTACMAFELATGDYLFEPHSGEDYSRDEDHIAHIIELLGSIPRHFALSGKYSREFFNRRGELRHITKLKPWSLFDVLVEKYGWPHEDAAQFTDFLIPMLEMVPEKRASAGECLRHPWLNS
Summary of the method: as §1

TRKA = target: T7, TRKA (Homo sapiens, UniProt P04629)
T7 construct: purchased Reaction Biology Corp
Summary of the method: as §1

TTBK2 = target: T8, TTBK2 (Homo sapiens, UniProt Q6IQ55)
T8 construct: purchased Reaction Biology Corp
T8 sequence (Q6IQ55 whole entry): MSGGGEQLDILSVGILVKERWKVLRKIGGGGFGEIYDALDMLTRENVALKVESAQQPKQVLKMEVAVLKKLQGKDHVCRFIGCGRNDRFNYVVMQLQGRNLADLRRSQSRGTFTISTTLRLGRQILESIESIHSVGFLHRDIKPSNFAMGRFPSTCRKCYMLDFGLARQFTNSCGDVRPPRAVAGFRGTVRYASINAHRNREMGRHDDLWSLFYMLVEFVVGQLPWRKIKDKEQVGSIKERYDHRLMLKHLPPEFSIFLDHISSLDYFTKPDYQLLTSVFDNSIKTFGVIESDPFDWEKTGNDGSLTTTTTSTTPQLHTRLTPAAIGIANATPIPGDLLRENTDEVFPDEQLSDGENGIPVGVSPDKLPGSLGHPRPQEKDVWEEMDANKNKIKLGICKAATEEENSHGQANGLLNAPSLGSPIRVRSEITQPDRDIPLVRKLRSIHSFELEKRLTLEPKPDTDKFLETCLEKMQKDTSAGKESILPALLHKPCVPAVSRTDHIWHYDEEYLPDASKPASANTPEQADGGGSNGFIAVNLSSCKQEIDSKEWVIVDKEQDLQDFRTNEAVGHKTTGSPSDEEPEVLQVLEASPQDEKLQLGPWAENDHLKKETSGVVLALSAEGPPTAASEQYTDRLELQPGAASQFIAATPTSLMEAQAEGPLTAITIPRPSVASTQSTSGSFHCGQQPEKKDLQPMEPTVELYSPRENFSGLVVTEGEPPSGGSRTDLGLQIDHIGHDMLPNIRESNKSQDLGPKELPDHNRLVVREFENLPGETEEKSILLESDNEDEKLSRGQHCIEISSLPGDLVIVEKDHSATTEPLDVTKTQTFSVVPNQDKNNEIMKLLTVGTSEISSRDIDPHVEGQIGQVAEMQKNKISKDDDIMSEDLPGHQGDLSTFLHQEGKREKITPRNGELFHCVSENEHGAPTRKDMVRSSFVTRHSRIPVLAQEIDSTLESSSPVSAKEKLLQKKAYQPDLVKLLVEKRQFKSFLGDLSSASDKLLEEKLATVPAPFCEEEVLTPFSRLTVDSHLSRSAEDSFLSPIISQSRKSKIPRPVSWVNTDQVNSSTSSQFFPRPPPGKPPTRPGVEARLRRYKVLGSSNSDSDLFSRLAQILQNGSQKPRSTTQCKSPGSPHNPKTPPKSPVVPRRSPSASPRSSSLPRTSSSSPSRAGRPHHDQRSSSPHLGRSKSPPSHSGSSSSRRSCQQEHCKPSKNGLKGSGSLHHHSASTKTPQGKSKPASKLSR
Summary of the method: as §1

TYK2 = target: T9, TYK2 (Homo sapiens, UniProt P29597)
T9 construct: purchased Reaction Biology Corp
T9 sequence (P29597 whole entry): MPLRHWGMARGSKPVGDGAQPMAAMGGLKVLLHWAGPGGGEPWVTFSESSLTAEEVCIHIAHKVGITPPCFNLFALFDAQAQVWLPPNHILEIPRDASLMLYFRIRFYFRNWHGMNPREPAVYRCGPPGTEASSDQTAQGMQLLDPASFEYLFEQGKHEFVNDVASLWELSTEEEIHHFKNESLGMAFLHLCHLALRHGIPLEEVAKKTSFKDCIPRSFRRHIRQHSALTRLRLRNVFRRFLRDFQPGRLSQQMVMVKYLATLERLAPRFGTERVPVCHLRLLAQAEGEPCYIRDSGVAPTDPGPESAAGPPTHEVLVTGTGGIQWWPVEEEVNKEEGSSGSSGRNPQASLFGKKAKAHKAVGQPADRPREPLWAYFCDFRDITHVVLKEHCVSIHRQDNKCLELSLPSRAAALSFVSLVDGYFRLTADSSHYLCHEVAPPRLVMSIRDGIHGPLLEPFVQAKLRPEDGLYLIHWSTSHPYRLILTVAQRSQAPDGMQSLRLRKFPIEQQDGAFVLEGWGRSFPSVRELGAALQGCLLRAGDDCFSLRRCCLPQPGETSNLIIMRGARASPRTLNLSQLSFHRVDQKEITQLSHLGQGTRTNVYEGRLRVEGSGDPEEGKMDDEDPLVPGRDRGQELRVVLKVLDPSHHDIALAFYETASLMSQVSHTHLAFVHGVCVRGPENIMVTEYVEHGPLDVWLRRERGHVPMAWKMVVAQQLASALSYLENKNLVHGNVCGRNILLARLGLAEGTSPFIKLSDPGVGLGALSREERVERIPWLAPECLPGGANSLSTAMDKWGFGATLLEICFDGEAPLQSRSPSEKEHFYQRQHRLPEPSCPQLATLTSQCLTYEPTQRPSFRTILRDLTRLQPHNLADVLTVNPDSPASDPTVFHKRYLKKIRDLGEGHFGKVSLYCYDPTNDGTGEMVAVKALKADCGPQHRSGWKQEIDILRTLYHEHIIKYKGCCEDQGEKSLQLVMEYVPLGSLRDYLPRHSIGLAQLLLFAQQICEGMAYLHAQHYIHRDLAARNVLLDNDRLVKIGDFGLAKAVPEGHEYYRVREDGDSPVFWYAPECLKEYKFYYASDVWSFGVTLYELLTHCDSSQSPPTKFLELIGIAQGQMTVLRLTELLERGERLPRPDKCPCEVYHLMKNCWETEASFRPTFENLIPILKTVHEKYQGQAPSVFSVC
Summary of the method: as §1

[1] = read-out: % Enzyme Activity (relative to DMSO controls) Run 1
[2] = read-out: % Enzyme Activity (relative to DMSO controls) Run 2

C=CC(=O)Nc1cccc(Nc2nc(Nc3ccc(OCCOC)c(F)c3)ncc2F)c1 [Compound 2] gave an inhibition at 3 µM (BMPR2) of 16.2%, a remaining activity at 3 µM (BMPR2; [1]) of 83.8% and a remaining activity at 3 µM (BMPR2; [2]) of 83.8%. For the same compound, the inhibition at 3 µM (CK1g3) was 15%, the remaining activity at 3 µM (CK1g3; [1]) was 84.2% and the remaining activity at 3 µM (CK1g3; [2]) was 85.8%. It also gave an inhibition at 3 µM (GSK3a) of 24.5%, a remaining activity at 3 µM (GSK3a; [1]) of 76% and a remaining activity at 3 µM (GSK3a; [2]) of 75%. It also gave an inhibition at 3 µM (PKAcb) of 49.6%, a remaining activity at 3 µM (PKAcb; [1]) of 49.7% and a remaining activity at 3 µM (PKAcb; [2]) of 51.1%. The inhibition at 3 µM (PKAcg) was -27.8%, the remaining activity at 3 µM (PKAcg; [1]) was 128% and the remaining activity at 3 µM (PKAcg; [2]) was 128%. For the same compound, the inhibition at 3 µM (SRPK2) was 9.73%, the remaining activity at 3 µM (SRPK2; [1]) was 90.9% and the remaining activity at 3 µM (SRPK2; [2]) was 89.6%. For the same compound, the inhibition at 3 µM (TRKA) was -17.7%, the remaining activity at 3 µM (TRKA; [1]) was 117% and the remaining activity at 3 µM (TRKA; [2]) was 118%. For the same compound, the inhibition at 3 µM (TTBK2) was -0.86%, the remaining activity at 3 µM (TTBK2; [1]) was 102% and the remaining activity at 3 µM (TTBK2; [2]) was 99.7%. The inhibition at 3 µM (TYK2) was 52.6%, the remaining activity at 3 µM (TYK2; [1]) was 48.2% and the remaining activity at 3 µM (TYK2; [2]) was 46.6%.
